According to PubChem BioAssay AID540268 (Broad Institute, 2011):
Activity calls are given as the source filed them. The rule behind the calls is not given here.

Assay: growth inhibition of yeast carrying parasite Hsp90, dose response, anti-malarial Hsp90 inhibitor project, ATP luminescence, 48 h, cherry-picked samples (AID 540268);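 for activity change, negative = inhibition: 0% = neutral control wells and -100% = positive control wells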
Conditions: yeast expressing the parasite Hsp90, ATP luminescence; for activity change, negative = inhibition: at 26 µM (top of the series)

[O-][n+]1cccc2c(Br)cc(Br)c(O)c21
AC50: 3.55 µM

CCCCCCCCC/C(=N\O)c1ccccn1
AC50: 3.65 µM

CN(C)c1ccc(-n2cccc2/C=C/[N+](=O)[O-])cc1
AC50: 4.83 µM

CC1(C(=O)c2ccccc2)C2c3c(ccc4ccccc34)OC(=O)C21C(=O)N1CCOCC1 (stereo not drawn)
AC50: 4.16 µM

O=C(Oc1c(Cl)cc(Cl)c2cccnc12)c1cccc([N+](=O)[O-])c1
AC50: 16 µM

N#C/C(=C/c1ccc(O)cc1)C(=O)NCc1ccc(Cl)cc1
activity change, negative = inhibition: 10.6% (inactive)

COc1ccc2oc(=O)c(-c3csc(Nc4cccc(O)c4)n3)cc2c1
AC50: 7.93 µM

Oc1cc(OCc2ccccc2)ccc1-c1[nH]ncc1-c1ccccc1
AC50: 9.04 µM

O=C1C=CC(=O)N1CCCCCCCCCCN1C(=O)C=CC1=O
AC50: 0.837 µM

CSc1nnc2c3cc(F)ccc3n(C)c2n1
AC50: 5.49 µM

CCC(C)(C)n1nnnc1C(c1cccnc1)N1CCC(Cc2ccccc2)CC1 (stereo not drawn)
AC50: 1.52 µM

COc1cc2cnc(-c3ccccc3)c(C(=O)c3ccc(F)cc3)c2cc1OC
AC50: 3.01 µM

Clc1ccc2[nH]c3c(c2c1)CCc1cn[nH]c1-3
AC50: 8.79 µM

O=C(OC12CC3CC(CC(C3)C1)C2)c1ccc(NCc2cc(O)ccc2O)cc1
AC50: 8.91 µM

O=C(/C=C/c1ccccc1)NC(=S)NNC(=O)c1cnccn1
AC50: 3.69 µM

Cc1cc(C)c2c(N=NN3CCCCC3)[nH]nc2n1
AC50: 4.73 µM

O=S1(=O)C=C(Sc2nnc(-c3ccccc3)o2)c2ccccc21
AC50: 3.57 µM

O=C(NNC1=C(C(=O)C(F)(F)F)CCC1)c1ccc(Cl)cc1
AC50: 1.34 µM

C[C@H]1C[C@@H](C)C(=O)[C@@H]([C@H](O)CC2CC(=O)NC(=O)C2)C1
AC50: < 0.195 µM

CCN(C(=O)C1CCCN(c2nc(-c3ccc(OC)cc3)no2)C1)c1ccc(OC)cc1 (stereo not drawn)
AC50: 4.85 µM

CCC(=O)NC(c1cccs1)c1cc(Cl)c2cccnc2c1O (stereo not drawn)
AC50: 3.73 µM

COc1ccc(N(C(=O)c2ccncc2)S(=O)(=O)c2ccccc2)cc1
AC50: 1.66 µM

COc1ccccc1NS(=O)(=O)c1cc(C(=O)N2CC(C)CC(C)C2)ccc1C (stereo not drawn)
AC50: 5.81 µM

CC(C)N1C(=O)/C(=C\c2nc3ccccc3c(=O)[nH]2)c2ccccc21
AC50: 6.47 µM

Nc1ncnc2c1ncn2C1OC(COP(=O)(O)O)C(O)C1O (stereo not drawn)
AC50: 2.27 µM

Cc1ccc(NC(=O)c2cc(N3C(=O)C=CC3=O)ccc2Cl)cc1C
AC50: 0.92 µM

CCn1c(CNc2ccc(Cl)cc2)nnc1SCc1ccccc1
AC50: 2.26 µM

Cc1ccc(NC(=S)NCC23C=CC(O2)C2C(=O)N(c4ccc(C)cc4)C(=O)C23)cc1 (stereo not drawn)
AC50: 8.61 µM

O=C(c1ccccc1)c1ccccc1N1C(=O)C=CC1=O
AC50: 1.71 µM

CC(C)(C)c1ccc(-n2nc(C#N)c(Cl)cc2=O)cc1
AC50: 4.31 µM

Oc1c(C(c2ccc(Cl)cc2)N2CCCC2)cc(Cl)c2cccnc12 (stereo not drawn)
AC50: 1.58 µM

CC(=O)N1N=C(c2ccccc2)OC1c1ccc([N+](=O)[O-])s1 (stereo not drawn)
AC50: 8.65 µM

Oc1ccc(Cl)cc1/C=C/c1ccc2cccc(O)c2n1
AC50: 2.66 µM

COc1ccc2c(n1)Sc1nc3ccccc3nc1N2
AC50: 12.1 µM

O=C(OCC(=O)N1CCN(C(=O)c2ccco2)CC1)c1cc(-c2ccccc2)nc2ccccc12
AC50: 3.6 µM

CCOc1ccc(S(=O)(=O)NCc2ccccn2)c(C)c1C
activity change, negative = inhibition: 14.4% (inactive)

Cc1cccc(C)c1OCC(=O)NNC(=S)NC(=O)C1CC1
AC50: 1.35 µM

CCOC(=O)c1sc(-c2ccc(C(F)(F)F)cc2)nc1O
AC50: 2.59 µM

CC1Oc2cc3oc4c(O)c(O)ccc4c(=O)c3c(O)c2C1(C)C (stereo not drawn)
activity change, negative = inhibition: -0.538% (inactive)

Oc1ccc(Cl)cc1Cc1cc(Cl)ccc1O
AC50: 5.41 µM

Cn1c(/C=C/c2ccc([N+](=O)[O-])o2)nc2ccccc2c1=O
AC50: 6 µM

CC(C)N1CCN(c2ccc(OC[C@H]3CO[C@](Cn4cncn4)(c4ccc(Cl)cc4Cl)O3)cc2)CC1
AC50: 1.5 µM

O=C(N/N=C/c1cc(Cl)c(O)c(Cl)c1)c1cc2c(ccc3ccccc32)o1
AC50: 3.54 µM

Cc1nnc(N=c2ssnc2Cl)o1
AC50: 1.03 µM

COc1ccc2c(c1)OC[C@H]1[C@H]2N2C(=O)c3cc(Cl)ccc3NC(=O)[C@@]2(C)[C@H]1c1ccccc1
AC50: 1.12 µM

CC1=CC(=O)C=C(C)C1=NOS(=O)(=O)c1ccccc1
AC50: 1.4 µM

Cc1ccc(C(=O)c2no[n+]([O-])c2C(=O)c2ccc(C)cc2)cc1
AC50: 2.03 µM

Cc1ccc(/C=C/C(=O)c2ccccc(=O)c2O)c(C)c1
AC50: 1.93 µM

O=C(Nc1nc(-c2ccccc2)cs1)c1ccccc1NS(=O)(=O)c1ccc(F)cc1
AC50: 4.09 µM

CCc1ccccc1NC(=O)c1cccc(Oc2ccc([N+](=O)[O-])cc2Cl)c1
AC50: 4.12 µM

COc1ccc(OC)c(N2C(=O)NC(=O)/C(=C\c3ccc([N+](=O)[O-])s3)C2=O)c1
AC50: 5.48 µM

Cc1nnc(C)n1/N=C/c1cc(Br)cc(Br)c1O
AC50: 4.35 µM

O=C(O)CC/C(=N/Nc1ccc([N+](=O)[O-])cc1)C(=O)O
AC50: 2.22 µM

O=c1cc(CSc2ccc(Cl)cc2)nc(-c2ccccn2)[nH]1
AC50: 16.6 µM

O=C(N/N=C/c1sc2ccccc2c1O)c1cccc2ccccc12
AC50: 17 µM

COc1ccc(C2=CC3=C(Br)C(=O)C(C)(O)C(=O)C3=CO2)cc1 (stereo not drawn)
AC50: 1.73 µM

CCCCCCC(Cl)(Cn1ccnc1)c1ccccc1 (stereo not drawn)
AC50: 8.41 µM

O=C(OCn1ncc(Cl)c(Cl)c1=O)c1cccc(C(F)(F)F)c1
AC50: 5.36 µM

Cn1nnnc1N=N/C(=N/Nc1ccccc1)c1ccccc1
AC50: 3.2 µM

COc1cccc(F)c1C(C[N+](=O)[O-])c1c(N)n(C)c(=O)n(C)c1=O (stereo not drawn)
AC50: 4.3 µM

COc1cccc(/C=N/Nc2ccc([N+](=O)[O-])cn2)c1O
AC50: 4.36 µM

CCN1/C(=C\c2ccc3cc(C)ccc3[n+]2CC)Sc2cc(C)c(C)cc21
AC50: 3.51 µM

O=C(NC(c1ccc(Cl)cc1)c1cc(Cl)c2cccnc2c1O)c1cccnc1 (stereo not drawn)
AC50: 24.4 µM

CCN1/C(=C/c2ccc3cc(C)ccc3[n+]2CC)Sc2cc(C)c(C)cc21
AC50: 3.25 µM

CCOC(=O)c1ccc(NC(=O)CC2C(=O)OCCN2CC)cc1 (stereo not drawn)
AC50: 4.28 µM

O=C1CCCN1CCC1CCN(C2CC(=O)N(c3ccc(Cl)cc3)C2=O)CC1 (stereo not drawn)
AC50: 4.79 µM

CCN1/C(=C/c2ccc3cc(C)ccc3[n+]2CC)Sc2ccccc21
AC50: 8.11 µM

Cc1ccc(OCC(=O)NNC(=S)NC(=O)C2CC2)c(C)c1
AC50: 4.16 µM

O=C1NC(=S)NC(=O)C1=Cc1ccc(Br)s1
AC50: 4.48 µM

O=C1C2C3C=CC(CNS(=O)(=O)c4ccccc4)(O3)C2C(=O)N1c1ccc(Cl)cc1 (stereo not drawn)
AC50: 3.73 µM

CCCC1COC(Cn2cncn2)(c2ccc(C)cc2)O1 (stereo not drawn)
AC50: 0.628 µM

Oc1c(Cl)cc(Cl)c(Cl)c1Cc1c(O)c(Cl)cc(Cl)c1Cl
AC50: 0.676 µM

O=C(/C=C/c1ccc([N+](=O)[O-])cc1)c1ccccc(=O)c1O
AC50: 1.04 µM

COc1ccc2c(c1)c(=Cc1ccc(N(C)C)cc1)c1cc(-c3ccccc3)[n+](C)n12
AC50: 6.32 µM

N/C(Cc1ccc(Cl)c(Cl)c1)=N\OC(=O)c1ccc(Br)o1
activity change, negative = inhibition: 66.7% (inactive)

Cc1cc(C)c(S(=O)(=O)N2CCC(C(=O)NCc3ccc(Cl)cc3Cl)CC2)c(C)c1
AC50: 0.835 µM

COc1ccc2c(c1)CCc1c(C(=O)N3CCc4ccccc4C3)noc1-2
AC50: 4.5 µM

CN1CCN(C(c2ccc(Cl)cc2)c2cc(Cl)c3cccnc3c2O)CC1 (stereo not drawn)
AC50: 0.615 µM

O=C(Nc1cc(Cl)ccc1-n1cncn1)c1ccc([N+](=O)[O-])s1
AC50: 4.2 µM

Cc1cccc(N=Nc2ccc(O)c3ncccc23)c1
AC50: 2.25 µM

Cc1ccc(CNC(=O)c2ccc(Cn3nc(C)c(Cl)c3C)o2)cc1
AC50: 7.23 µM

O=C(NNc1nc2ccc(Cl)cc2s1)c1cc(-c2cccs2)nc2ccccc12
AC50: 1.49 µM

CC(=NNC(=S)N1CCN(c2ccccn2)CC1)c1nccs1
AC50: 2.58 µM

CCCC(=O)NC(c1ccc(C)cc1)c1ccc2cccnc2c1O (stereo not drawn)
AC50: 3.4 µM

O=C1c2ccccc2NC(c2ccc(-c3ccc(C(F)(F)F)cc3)o2)N1O (stereo not drawn)
AC50: 7.62 µM

COC(=O)/C=C\C(=O)Nc1cccc([N+](=O)[O-])c1
AC50: 2.43 µM

Cc1ccc2nc(-c3cccc(NS(C)(=O)=O)c3)cc(-c3ccccc3)c2c1
AC50: 9.6 µM

O=C(C=Cc1cccc(O)c1)c1ccccc1O
AC50: 1.89 µM

CCN(CC)C(=S)SSC(=S)N(CC)CC
AC50: 4.55 µM

COc1ccc(C(=O)/C=C/C(=O)N(CC(=O)NC2CCCCC2)Cc2cccs2)c(O)c1
AC50: 3.3 µM

C=CCn1c(C)cc(C(=O)CSc2nnc(NCc3ccccc3)s2)c1C
AC50: 4.2 µM

O=C(/C=C/c1cccc(Cl)c1)c1ccc([N+](=O)[O-])o1
AC50: 0.84 µM

COc1cc(N=c2ssnc2Cl)c(OC)cc1Cl
activity change, negative = inhibition: -119% (inactive)

CCOC(=O)C1CCCN(C2CC(=O)N(c3cccc(C(F)(F)F)c3)C2=O)C1 (stereo not drawn)
AC50: 4.24 µM

CC(C)(C)c1nnc(N/N=C/c2cc(Br)ccc2O)n(N)c1=O
AC50: 4.92 µM

Cc1cc(NC(c2ccc(Cl)cc2)c2ccc3cccnc3c2O)no1 (stereo not drawn)
AC50: 4.2 µM

CCCC(=O)NC(c1ccc(OC)cc1)c1ccc2cccnc2c1O (stereo not drawn)
AC50: 6.15 µM

Cc1ccc(C(C[N+](=O)[O-])Sc2ccc(N)cc2)cc1 (stereo not drawn)
AC50: 6.83 µM

Cc1c(CCCl)c(Cl)n2c(nc3ccccc32)c1C#N
AC50: 3.39 µM

Cc1[nH]n(-c2ccccc2)c(=O)c1C(C[N+](=O)[O-])c1ccc(Br)cc1 (stereo not drawn)
AC50: 8.54 µM

CCOc1ccccc1N1CCN(C(=O)c2cccc(-c3ccc(O)cc3)c2)CC1
AC50: 5.08 µM

O=C1C=CC(=O)C2C1C1(Cl)C(Cl)=C(Cl)C2(Cl)C1(Cl)Cl (stereo not drawn)
AC50: 8.65 µM

Cc1cc(N2CCN(C(=O)c3ccco3)CC2)n2ncc(-c3ccccc3)c2n1
AC50: 2.31 µM

O=C1C=CC(=Nc2ccc(F)cc2)O1
AC50: 1.24 µM

O=S(=O)(Nc1nc2ccccc2nc1N1CCN(c2ccccn2)CC1)c1ccc(Cl)cc1
AC50: 8.25 µM

COc1ccc(C(C[N+](=O)[O-])n2nc(C)cc2C)cc1 (stereo not drawn)
AC50: 0.365 µM

O=C(c1ccc(-c2ccccc2)cc1)C1CCCN(C(=O)c2cncs2)C1 (stereo not drawn)
AC50: 2.72 µM

CC(C)(C)C(O)C(Oc1ccc(Cl)cc1)n1cncn1 (stereo not drawn)
AC50: < 0.195 µM

O=C(NN1C(=O)/C(=C\c2ccc(O)c([N+](=O)[O-])c2)SC1=S)c1ccccc1Cl
AC50: 5.92 µM

Oc1c(CN2CCN(c3ccccc3)CC2)cc(Br)c2cccnc12
AC50: 7.92 µM

CN(C)c1ccc(-c2cc(O)c3ncccc3c2)cc1
activity change, negative = inhibition: 26.4% (inactive)

CC(C)(C)c1ccc(NC(=O)COC(=O)c2ccc([N+](=O)[O-])s2)cc1
AC50: 3.88 µM

CC(=NNC(=S)N(Cc1ccccn1)Cc1ccccn1)c1cnccn1
AC50: 3.95 µM
